In article PMC9405973, “Altered Conformational Landscape upon Sensing Guanine Nucleotides in a Disease Mutant of Elongation Factor-like 1 (EFL1) GTPase” (Biomolecules, 2022):
Where “and” joins values, the source holds several entries; their conditions need not be identical. Equal values may be shown once.

Assays:
wild-type Efl1•Sdo1 = tested on: wild-type Efl1•Sdo1; design: method as in PMID 30780079; conditions: −Mg^2+, cited from earlier work
Efl1 R1086Q = biological target: T1, Efl1 R1086Q (Saccharomyces cerevisiae, UniProt P53893, R1086Q); test: Isothermal titration calorimetry (ITC): binding of guanine nucleotides or Sdo1 to Efl1 R1086Q; conditions: for Kd / -TΔSb / ΔGb / ΔHb / ΔCpb: guanine nucleotide; for ΔCpb: from ΔHb at 25–35 °C
T1 construct: made in house; host or cells: Saccharomyces cerevisiae
T1 sequence (P53893 whole entry R1086Q): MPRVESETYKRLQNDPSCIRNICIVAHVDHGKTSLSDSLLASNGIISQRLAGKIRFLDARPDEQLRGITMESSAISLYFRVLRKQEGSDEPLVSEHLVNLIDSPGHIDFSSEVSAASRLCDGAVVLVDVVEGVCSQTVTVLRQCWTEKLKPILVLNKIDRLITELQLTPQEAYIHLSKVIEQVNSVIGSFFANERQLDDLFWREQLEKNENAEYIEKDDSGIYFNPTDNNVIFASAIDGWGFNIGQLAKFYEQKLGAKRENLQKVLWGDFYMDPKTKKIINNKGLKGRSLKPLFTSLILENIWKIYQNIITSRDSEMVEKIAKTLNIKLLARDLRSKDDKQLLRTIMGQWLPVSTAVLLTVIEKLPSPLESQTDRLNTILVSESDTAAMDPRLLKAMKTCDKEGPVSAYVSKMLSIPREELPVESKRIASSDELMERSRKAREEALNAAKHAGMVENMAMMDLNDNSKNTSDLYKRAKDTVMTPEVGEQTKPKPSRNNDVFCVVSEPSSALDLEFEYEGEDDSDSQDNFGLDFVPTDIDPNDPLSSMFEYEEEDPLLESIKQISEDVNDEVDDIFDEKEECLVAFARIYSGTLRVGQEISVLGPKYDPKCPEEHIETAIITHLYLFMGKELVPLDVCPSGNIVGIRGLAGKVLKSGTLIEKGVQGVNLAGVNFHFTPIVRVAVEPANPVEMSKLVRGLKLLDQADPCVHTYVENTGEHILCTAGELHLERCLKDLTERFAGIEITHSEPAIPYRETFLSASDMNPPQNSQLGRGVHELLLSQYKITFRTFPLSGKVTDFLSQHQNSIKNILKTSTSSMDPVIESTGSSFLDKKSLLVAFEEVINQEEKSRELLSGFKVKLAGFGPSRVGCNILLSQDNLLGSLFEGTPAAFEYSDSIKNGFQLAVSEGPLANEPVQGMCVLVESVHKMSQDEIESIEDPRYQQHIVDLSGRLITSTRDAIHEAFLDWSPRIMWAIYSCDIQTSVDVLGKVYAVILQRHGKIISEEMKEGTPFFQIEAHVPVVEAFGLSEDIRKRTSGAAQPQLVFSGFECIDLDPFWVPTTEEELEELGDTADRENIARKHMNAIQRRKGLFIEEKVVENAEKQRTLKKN
Description: All calorimetric measurements were carried out using MicroCal^TM iTC200 System (GE Healthcare, Northampton, MA, USA) in a temperature range of 25–35 °C. Experiments were performed in a buffer consisting of 50 mM Tris-HCl (pH 8.0), 150 mM NaCl, 100 µM DTT, and 5% glycerol. In the titrations with Mg^2+-bound nucleotides, both the ligand and protein solutions contained 5 mM MgCl2. In the case of titrations with Mg^2+-free nucleotide, both the ligand and protein solutions were supplemented with 2 mM EDTA to sequester any residual trace of metal ions in solution. Protein samples and ligands were prepared in the exact same buffer prior to each titration. Protein concentration in the cell comprised 30–50 µM GTPase, while the ligand concentration in the syringe was 2–3 mM for GTP, MgGTP, GDP, and MgGDP. To ensure measuring the interaction of the complex Efl1 R1086Q•Sdo1 with the nucleotide, an eight-fold concentration excess of Sdo1 was used compared with that of the enzyme. […] The titration schedule consisted of 15–20 consecutive injections of the ligand with 5 min intervals between injections and a stirring rate of 700 rpm. The dilution heat of the ligand was obtained by adding the ligand to a buffer solution under identical conditions and with the same injection schedule used for the protein sample. All samples were degassed for 10 min prior to the experiment.
The binding isotherms obtained for the isolated GTPase in the presence of Mg(II) were analysed using a ternary model in which the protein can bind to the free nucleotide (G(D)TP) or that bound to one magnesium ion (MgG(D)TP); additionally, GTP may also exist in the form of Mg2GTP, which is not recognised by the protein. The derivation of this coupled-equilibria model can be reviewed in [6, 31]. The binding constant (Kb), the enthalpy change (∆Hb), and the stoichiometry (n) were obtained with the non-linear routines implemented in Origin 5.0 (OriginLab, Co., Northampton, MA, USA) using a one-binding-site model as described in [32, 33]. The heterotropic cooperativity for the binding of guanine nucleotides and Sdo1 to Efl1 R1086Q were calculated as previously described in [6, 32]. The cooperative effects of Mg(II) on the binding of guanine nucleotides to Efl1 R1086Q alone and bound to Sdo1 were calculated as follows:κ = KE-MG/KE-G κ = KES-MG/KES-G Δh = ΔHE-MG − ΔHE-G Δh = ΔHES-MG − ΔHES-G where subscripts E-MG and E-G stand for the association of the metal-bound and metal-free guanine nucleotide with mutant Efl1, respectively. Corresponding expressions applied to the heterotropic cooperativity of the binding of nucleotides to the preformed complex, Efl1•Sdo1 (ES).
The impact of Sdo1 on the binding of Efl1 R1086Q to guanine nucleotides in the presence of magnesium ions is contained in KES-MG and ΔHES-MG relative to the KE-S and ΔHE-S values; analogous ratios report the effects in the absence of Mg(II):κ = KES-MG/KE-S κ = KES-G/KE-G Δh = ΔHES-MG − ΔHE-S Δh = ΔHES-G − ΔHE-G
The corresponding cooperative entropy change was calculated as:TΔs = Δh − Δg = Δh + RTlnκ
The detailed methodology and equations to compute the changes in the accessible surface area (∆ASA) of the GTPase upon binding to nucleotides and the ∆S energetic-based parameters are reported in [6]. Briefly, the water-accessible areas (ASAs) were computed using programme NACCESS, while the changes in accessible surface area (ΔASA) upon the formation of each GTPase–nucleotide complex were estimated considering the difference between the complex and the sum of the free interacting partners. The calculated polar (ΔASAp) and apolar (ΔASAap) area changes were subsequently used to estimate the free molecular partners. […]

[1] = Effect of Mg^2+, Efl1 R1086Q − Sdo1, 25 °C
[2] = Effect of Mg^2+, Efl1 R1086Q − Sdo1, 30 °C
[3] = Effect of Mg^2+, Efl1 R1086Q − Sdo1, 35 °C
[4] = Effect of Sdo1, Efl1 R1086Q + Mg^2+, 25 °C
[5] = Effect of Sdo1, Efl1 R1086Q + Mg^2+, 30 °C
[6] = Effect of Sdo1, Efl1 R1086Q + Mg^2+, 35 °C
[7] = Effect of Sdo1, Efl1 R1086Q − Mg^2+, 25 °C
[8] = Effect of Sdo1, Efl1 R1086Q − Mg^2+, 30 °C
[9] = Effect of Sdo1, Efl1 R1086Q − Mg^2+, 35 °C

Nc1nc2c(ncn2[C@@H]2O[C@H](COP(=O)(O)OP(=O)(O)O)[C@@H](O)[C@H]2O)c(=O)[nH]1 [GDP]
-TΔSb (wild-type Efl1•Sdo1; 30 °C): 1.5 kcal/mol
Kd (wild-type Efl1•Sdo1; 30 °C): 52 µM
ΔGb (wild-type Efl1•Sdo1; 30 °C): -5.9 kcal/mol
ΔHb (wild-type Efl1•Sdo1; 30 °C): -7.4 ± 0.0 kcal/mol
ΔCpb (wild-type Efl1•Sdo1): −640 cal mol^−1 K^−1 and −640 ± 34 cal mol^−1 K^−1
increase in binding enthalpy as temperature increased (Efl1 R1086Q; 25 °C to 35 °C): ~ 6 kcal mol^−1
Nconfres (number of residues changing conformation, absolute value) (Efl1 R1086Q; +Mg^2+, 30 °C): 21
Nconfrotb (number of routable bonds changing conformation, absolute value) (Efl1 R1086Q; +Mg^2+, 30 °C): 30
ΔCpconf (Efl1 R1086Q; +Mg^2+, 30 °C): −222 cal mol^−1 K^−1
ΔSb (Efl1 R1086Q; +Mg^2+, 30 °C): 7 cal mol^−1 K^−1
ΔSconf (Efl1 R1086Q; +Mg^2+, 30 °C): −49 cal mol^−1 K^−1
ΔSsolv (Efl1 R1086Q; +Mg^2+, 30 °C): 65 cal mol^−1 K^−1
−ΔASAconf (Efl1 R1086Q; +Mg^2+, 30 °C): 996 Å^2
-TΔs (Efl1 R1086Q; [1]): -2.3 kcal/mol
Δg (Efl1 R1086Q; [1]): 1.3 kcal/mol
Δh (Efl1 R1086Q; [1]): 3.5 kcal/mol
κ (heterotropic cooperativity) (Efl1 R1086Q; [1]): 0.1
-TΔs (Efl1 R1086Q; [2]): -2.4 kcal/mol
Δg (Efl1 R1086Q; [2]): 1.2 kcal/mol
Δh (Efl1 R1086Q; [2]): 3.6 kcal/mol
κ (heterotropic cooperativity) (Efl1 R1086Q; [2]): 0.1
-TΔs (Efl1 R1086Q; [3]): -2.1 kcal/mol
Δg (Efl1 R1086Q; [3]): 1.2 kcal/mol
Δh (Efl1 R1086Q; [3]): 3.3 kcal/mol
κ (heterotropic cooperativity) (Efl1 R1086Q; [3]): 0.2
-TΔs (Efl1 R1086Q; [4]): -1.6 kcal/mol
Δg (Efl1 R1086Q; [4]): -0.6 kcal/mol
Δh (Efl1 R1086Q; [4]): 1.0 kcal/mol
κ (heterotropic cooperativity) (Efl1 R1086Q; [4]): 2.7
-TΔs (Efl1 R1086Q; [5]): -1.1 kcal/mol
Δg (Efl1 R1086Q; [5]): -0.8 kcal/mol
Δh (Efl1 R1086Q; [5]): 0.3 kcal/mol
κ (heterotropic cooperativity) (Efl1 R1086Q; [5]): 3.6
-TΔs (Efl1 R1086Q; [6]): -1.4 kcal/mol
Δg (Efl1 R1086Q; [6]): -0.9 kcal/mol
Δh (Efl1 R1086Q; [6]): 0.5 kcal/mol
κ (heterotropic cooperativity) (Efl1 R1086Q; [6]): 4.6
-TΔs (Efl1 R1086Q; [7]): -3.1 kcal/mol
Δg (Efl1 R1086Q; [7]): 1.06 kcal/mol
Δh (Efl1 R1086Q; [7]): 4.2 kcal/mol
κ (heterotropic cooperativity) (Efl1 R1086Q; [7]): 0.2
-TΔs (Efl1 R1086Q; [8]): -1.2 kcal/mol
Δg (Efl1 R1086Q; [8]): 1.2 kcal/mol
Δh (Efl1 R1086Q; [8]): 2.3 kcal/mol
κ (heterotropic cooperativity) (Efl1 R1086Q; [8]): 0.1
Δg (Efl1 R1086Q; [9]): 1.3 kcal/mol
Δh (Efl1 R1086Q; [9]): 1.2 kcal/mol
κ (heterotropic cooperativity) (Efl1 R1086Q; [9]): 0.1
Kd (Efl1 R1086Q; +Mg^2+, 25 °C): 24 ± 3 µM
Kd (Efl1 R1086Q; +Mg^2+, 30 °C): 28 ± 6 µM
Kd (Efl1 R1086Q; +Mg^2+, 35 °C): 29 ± 8 µM
Kd (Efl1 R1086Q; −Mg^2+, 25 °C): 3 ± 0.4 µM
Kd (Efl1 R1086Q; −Mg^2+, 30 °C): 4 ± 0.6 µM
Kd (Efl1 R1086Q; −Mg^2+, 35 °C): 4 ± 0.6 µM
-TΔSb (Efl1 R1086Q; +Mg^2+, 25 °C): -3.19 kcal/mol
ΔGb (Efl1 R1086Q; +Mg^2+, 25 °C): -6.29 kcal/mol
ΔHb (Efl1 R1086Q; +Mg^2+, 25 °C): -3.1 ± 0.1 kcal/mol
-TΔSb (Efl1 R1086Q; +Mg^2+, 30 °C): -2.20 kcal/mol
ΔGb (Efl1 R1086Q; +Mg^2+, 30 °C): -6.30 kcal/mol
ΔHb (Efl1 R1086Q; +Mg^2+, 30 °C): -4.1 ± 0.6 kcal/mol
-TΔSb (Efl1 R1086Q; +Mg^2+, 35 °C): -0.59 kcal/mol
ΔGb (Efl1 R1086Q; +Mg^2+, 35 °C): -6.39 kcal/mol
ΔHb (Efl1 R1086Q; +Mg^2+, 35 °C): -5.8 ± 0.2 kcal/mol
ΔCpb (Efl1 R1086Q; +Mg^2+): −270 ± 40 cal mol^−1 K^−1 and −270 cal mol^−1 K^−1
-TΔSb (Efl1 R1086Q; −Mg^2+, 25 °C): -0.94 kcal/mol
ΔGb (Efl1 R1086Q; −Mg^2+, 25 °C): -7.54 kcal/mol
ΔHb (Efl1 R1086Q; −Mg^2+, 25 °C): -6.6 ± 0.2 kcal/mol
-TΔSb (Efl1 R1086Q; −Mg^2+, 30 °C): 0.22 kcal/mol
ΔGb (Efl1 R1086Q; −Mg^2+, 30 °C): -7.47 kcal/mol
ΔHb (Efl1 R1086Q; −Mg^2+, 30 °C): -7.7 ± 0.3 kcal/mol
-TΔSb (Efl1 R1086Q; −Mg^2+, 35 °C): 1.55 kcal/mol
ΔGb (Efl1 R1086Q; −Mg^2+, 35 °C): -7.55 kcal/mol
ΔHb (Efl1 R1086Q; −Mg^2+, 35 °C): -9.1 ± 0.3 kcal/mol
ΔCpb (Efl1 R1086Q; −Mg^2+): −250 cal mol^−1 K^−1 and −250 ± 17 cal mol^−1 K^−1
surface buried by the conformational change (Efl1 R1086Q; refers to Table 3, 30 °C): ~ 1000 Å
Nconfres (number of residues changing conformation, absolute value) (Efl1 R1086Q; −Mg^2+, 30 °C): 21
ΔCpconf (Efl1 R1086Q; −Mg^2+, 30 °C): −220 cal mol^−1 K^−1
ΔSb (Efl1 R1086Q; −Mg^2+, 30 °C): −1 cal mol^−1 K^−1
ΔSconf (Efl1 R1086Q; −Mg^2+, 30 °C): −53 cal mol^−1 K^−1
ΔSsolv (Efl1 R1086Q; −Mg^2+, 30 °C): 60 cal mol^−1 K^−1
−ΔASAconf (Efl1 R1086Q; −Mg^2+, 30 °C): 987 Å^2
